Assay results reported in article PMC5626944 (Frontiers in Pharmacology, 2017).
Where two headings read alike, the source gives them in different places.

Experiments:
[1] = 0.2 mg/kg ip; for [TC299423] in assay: brain; for Blood measurements: [TC299423]: serum
Procedure: Uninjected mice served as controls (n = 3 for each group). Trunk blood was collected into heparinized 1.5 mL polyethylene tubes. The tubes were centrifuged and the serum was collected. […] The cerebral cortex was dissected, placed in 1 mL of cold water, homogenized, and diluted to 3 mL with cold water. Epibatidine saturation curves were constructed for the cortical samples using eight concentrations of [^125I]epibatidine measured in triplicate (6, 12, 25, 50, 100, 200, 400, and 800 pM). The final assay volume was […] 50 μL of homogenate was added to each sample. Blanks included 100 μM nicotine. Samples were incubated at room temperature overnight. The samples were filtered, washed and counted. Inhibition of [^125I]epibatidine (325 pM) binding was measured by adding 1, 2, 5, 10, or 20 μL of serum to samples. The washed, particulate fraction from C57BL/6 cortex was the source of the binding sites.

[2] = tested on: WT, α6L9′S, α6KO, α4KO and β2KO mice; assay: Conditioned place preference; assay type: in vivo, mouse; details: for ED50: Mus musculus, read-out: CPP ED50
Excerpt: Male, 3–6-month-old mice were used in our CPP assays. Various genotypes were used: WT, α6L9′S, α4L9′S (hypersensitive […]), α6KO, α4KO, and β2KO. All WT mice were C57BL/6J and all other genotypes have been backcrossed with C57BL/6J mice for ≥10 generations. The CPP apparatus (Med Associates, East Fairfield, VT, United States) was a rectangular cage with interior dimensions of 46.5 × 12.7 × 12.7(H) cm, divided into three sub-compartments: white and black (each 16.8 cm L) with steel mesh and rod floors, respectively, and a central gray compartment (7.2 cm L) with a solid plastic floor. […] Drop-down doors separated the chambers.
Mice were housed singly and habituated to the experimental room for 3–7 days before initial testing and remained in the experimental room for the duration of the experiment. We chose a biased method for CPP. On day 1 (pre-training) mice were placed in the center chamber and allowed to explore the apparatus freely for 20 min. Time spent in each chamber was recorded, and drug pairing was determined by the least preferred chamber. Mice with a severe initial bias for one chamber (defined as ≥65% time spent in one conditioning chamber) were excluded. On days 2, 4, 6, and 8, mice were injected with the drug of interest, and were confined to the drug-paired chamber for 20 min. On days 3, 5, 7, and 9, mice were injected with saline and confined to the opposite chamber. On day 10 (post-training), mice were again given free access to the apparatus for 20 min, and the time spent in each chamber was recorded. CPP was determined by measuring the change in the difference between the time spent in the drug-paired chamber and the saline-paired chamber from pre- to post-training.

male Wistar rats = assay: Rat intravenous nicotine self-administration; assay type: in vivo; details: 0.01, 0.025, 0.05, 0.08 mg/kg ip, 20 min before session; nicotine 0.03 mg/kg/inf
Excerpt: Operant chambers (Med Associates, East Fairfield, VT, United States) were used for food delivery and the intravenous self-administration (IVSA) of nicotine.
For IV catheter implantation, the rats were anesthetized using 1–3% isoflurane inhalation in oxygen and surgically prepared with catheters in the left jugular vein ([Kenny et al., 2008]). The catheter was passed subcutaneously to a polyethylene assembly mounted on the animals’ back. Prior to training, rats were food-restricted so that their body weight was approximately ∼85% that of free-feeding rats. They were then trained to press an active lever for 45 mg food pellets on a fixed ratio 5 time-out 20 s (FR5TO20) schedule of reinforcement. […] Pressing this lever was recorded but was not associated with scheduled consequence. Rats were permitted to respond for food rewards until a reliable response was achieved, defined as >90 pellets earned per 1 h session for three consecutive sessions. Rats were then permitted to respond for food (n = 8) or for nicotine infusions (n = 9) during 1 h daily sessions under the FR5TO20 schedule. […]
Twenty min after injection, rats were placed in the operant boxes and responding for food rewards or nicotine infusions was recorded. […]

Dopamine, D3 = assay: NovaScreen competition binding; details: 1 µM
Serotonin Transporter = assay: NovaScreen competition binding; details: 1 µM
Serotonin, 5HT2A = assay: NovaScreen competition binding; details: 1 µM
Serotonin, 5HT6 (h) = assay: NovaScreen competition binding; design: species or system human; details: 1 µM
Sigma 1 = assay: NovaScreen competition binding; details: 1 µM
Endothelin, ET-A (h) = tested on: T1, Endothelin, ET-A (h); assay: NovaScreen competition binding; design: species or system human; details: 1 µM
T1 construct: PerkinElmer – Caliper Life Sciences (NovaScreen service)

[3] = tested on: T2, Phosphodiesterase, PDE5A1 (h); assay: NovaScreen enzyme assay; assay type: biochemical, human; details: 1 µM
T2 construct: PerkinElmer – Caliper Life Sciences (NovaScreen service)

C1=C(/c2cncnc2)CCCNCC/1 [TC299423, (E)-5-(pyrimidin-5-yl)-1,2,3,4,7,8-hexahydroazocine]
Duration of brain penetration and availability to nAChRs [1]: ≥ 20 min | [TC299423] in brain ([1]; 5 min): 45 ± 25 pmol/mg | [TC299423] in brain ([1]; 10 min): 88 ± 18 pmol/mg | [TC299423] in brain ([1]; 20 min): 73 ± 4.0 pmol/mg | [TC299423] in assay ([1]; 5 min): 2.2 ± 1.1 nM | [TC299423] in assay ([1]; 10 min): 4.4 ± 0.9 nM | [TC299423] in assay ([1]; 20 min): 3.7 ± 0.2 nM | Blood measurements: [TC299423] ([1]; 5 min): 250 ± 50 nM | Blood measurements: [TC299423] ([1]; 10 min): 370 ± 70 nM | Blood measurements: [TC299423] ([1]; 20 min): 120 ± 30 nM | CPP difference scores in α4KO mice vs WT ([2]; 0.012 mg/kg): no effect | CPP difference scores in α6KO and β2KO mice vs WT ([2]; 0.012 mg/kg): dramatically reduced | ED50 ([2]; WT mice, Michaelis–Menten fit): 4 ± 3 µg/kg | ED50 ([2]; α6L9′S mice): < 1 µg/kg | CPP difference score vs saline-injected control ([2]; WT mice, 0.012 mg/kg, t-test p = 0.047): marginally significant increase | Overall effect on CPP ([2]; WT mice, 1, 4, 12, 25 μg/kg, one-way ANOVA): no significant overall effect | Overall effect on the CPP difference score ([2]; α6L9′S mice, 1, 4, 12, 25 μg/kg, one-way ANOVA): highly significant overall effect | CPP difference score vs saline-injected controls ([2]; α6L9′S mice, 1 and 25 μg/kg, Tukey HSD p < 0.05): significantly greater than the saline-injected controls | Responding for nicotine infusions vs vehicle (male Wistar rats): no statistically significant changes | Hit (Dopamine, D3): FALSE | Inhibition (Dopamine, D3; [3H]7-OH-DPAT): -16.93% | Hit (Serotonin Transporter): FALSE | Inhibition (Serotonin Transporter; [3H]Citalopram, N-Methyl): 7.03% | Hit (Serotonin, 5HT2A): FALSE | Inhibition (Serotonin, 5HT2A; [3H]Ketanserin): 12.43% | Hit (Serotonin, 5HT6 (h)): FALSE | Inhibition (Serotonin, 5HT6 (h); [3H]-LSD): 8.87% | Hit (Sigma 1): FALSE | Inhibition (Sigma 1; [3H]-(+)-Pentazocine): -0.52% | Hit (Endothelin, ET-A (h)): FALSE | Inhibition (Endothelin, ET-A (h); [125I] Endothelin-1): 8.93% | Hit [3]: FALSE | Inhibition ([3]; substrate Fluorescent cyclic GMP): -3.00%
